Results reported in patent US20260176289A1, “SMALL MOLECULE INHIBITORS OF KRAS PROTEINS” (Merck Sharp & Dohme LLC, priority 2022, published 2026).

Key:
[1] = biological target: T1, KRAS G12C (amino acids 1-169) (Homo sapiens, UniProt P01116, G12C); assay: SOS-catalyzed nucleotide exchange assay (Procedure B, BODIPY FL GDP displacement), KRAS G12C; format: biochemical; conditions: read-out: KRAS G12C GNE IC50
T1 construct: made in house; host or cells: E. coli
Protocol: (§1) Procedure for SOS-Catalyzed Nucleotide Exchange Assay for KRAS-G12C/D/V/WT (Procedure B)
(§2) Recombinant KRAS G12C (amino acids 1-169, SEQ ID NO:9), KRAS G12D (amino acids 1-169, SEQ ID NO: 10), KRAS G12V (amino acids 1-169, SEQ ID NO: 11), KRAS WT (amino acids 1-169, SEQ ID NO:12) and SOS1 (amino acids 564-1049, SEQ ID NO: 13) proteins were expressed in E. coli and purified by affinity chromatography. To prepare each BODIPY™ FL GDP-bound KRAS protein, 50 μM KRAS proteins were incubated with 0.5 mM BODIPY™ FL GDP (Invitrogen, G22360) in a loading buffer (20 mM Tris-HCl pH 7.5, 50 mM NaCl, 1 mM DTT and 2.5 mM EDTA) for 1 hour on ice. After the incubation, MgCl2 was added to a final concentration of 10 mM, followed by an incubation at room temperature for 30 minutes. The mixtures were allowed to pass through a NAP-5 column to remove free nucleotides and purified BODIPY™ FL GDP-bound KRAS G12C, G12D, G12V and WT proteins were used for compound evaluation.
(§3) The inhibitory activity of compounds on recombinant KRAS is measured by the displacement of the bound BODIPY™ GDP. Specifically, 2.5 nM of each BODIPY™ FL GDP-bound KRAS complex was incubated with various concentrations of compound in a reaction buffer (20 mM Tris-HCl pH 7.5, 100 mM NaCl, 1 mM MgCl2, 2 mM DTT, 0.1% Tween 20) at 25° C. for 1 hour. After the incubation, recombinant SOS1 and GMPPNP (Jena Bioscience GmbH, NU-401) were added and incubated at room temperature for 30 minutes to proceed SOS1-dependent GDP-GTP exchange reaction on KRAS. Displacement of BODIPY™ FL GDP by Guanosine-5′-[(β,γ)-imido]triphosphate, Tetralithium salt (GMPPNP) was measured by calculating the ratio of fluorescence intensities of BODIPY™ FL before and after the exchange reaction. Percent Inhibition was calculated by setting the fluorescence ratio from the reaction without test compound (DMSO control) and the fluorescence ratio from the reaction without SOS1 and GMPPNP as 0% and 100% inhibition, respectively. Dose response curves were analyzed using a 4-parameter logistic model to calculate IC50 values.

[2] = biological target: T2, KRAS G12D (amino acids 1-169) (Homo sapiens, UniProt P01116, G12D); assay: SOS-catalyzed nucleotide exchange assay (Procedure B, BODIPY FL GDP displacement), KRAS G12D; format: biochemical; conditions: read-out: KRAS G12D GNE IC50
T2 construct: made in house; host or cells: E. coli
Protocol: as §1, §2, §3

[3] = biological target: T3, KRAS G12V (amino acids 1-169) (Homo sapiens, UniProt P01116, G12V); assay: SOS-catalyzed nucleotide exchange assay (Procedure B, BODIPY FL GDP displacement), KRAS G12V; format: biochemical; conditions: read-out: KRAS G12V GNE IC50
T3 construct: made in house; host or cells: E. coli
Protocol: as §1, §2, §3

[4] = biological target: T4, KRAS WT (amino acids 1-169) (Homo sapiens, UniProt P01116); assay: SOS-catalyzed nucleotide exchange assay (Procedure B, BODIPY FL GDP displacement), KRAS WT; format: biochemical; conditions: read-out: KRAS WT GNE IC50
T4 construct: made in house; host or cells: E. coli
Protocol: as §1, §2, §3

KRAS-WT = KRAS-WT (Homo sapiens, UniProt P01116); assay: SOS-catalyzed nucleotide exchange assay (Procedure A, TR-FRET), KRAS-WT; format: biochemical; conditions: nucleotide exchange, read-out: KRAS WT GNE IC50
Summary of the method: (§4)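 Compounds (10-point, 3-fold) were preincubated 60 min at room temperature with a biotinylated RAS/Bodipy-GDP/Tb-streptavidin TR-FRET complex. Exchange was started with human SOS plus 3 mM GTP. RAS/SOS: G12C 3/40 nM, WT 1/40 nM, NRAS 1.25/40 nM (60 min); G12V 1.25/160 nM (90 min). The 520/495 ratio was fit four-parameter.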

[5] = biological target: KRAS-G12C (C51S/C80L/C118S) (Homo sapiens, UniProt P01116, C118S/C51S/C80L/G12C); assay: SOS-catalyzed nucleotide exchange assay (Procedure A, TR-FRET), KRAS-G12C; format: biochemical; conditions: nucleotide exchange, Procedure A; read-out: KRAS G12C GNE IC50
Summary of the method: as §4

KRAS-G12D = KRAS-G12D (Homo sapiens, UniProt P01116, G12D); assay: SOS-catalyzed nucleotide exchange assay (Procedure A, TR-FRET), KRAS-G12D; format: biochemical; conditions: nucleotide exchange, read-out: KRAS G12D GNE IC50
Summary of the method: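 Signal ratio (520/495 nm, excitation 340 nm) reports Bodipy-GDP retention on biotinylated RAS after SOS-catalyzed exchange with 3 mM GTP. SOS was 40 nM, except 160 nM for G12V. Room-temperature exchange lasted 60 min (90 min for G12V), following a 60 min compound preincubation.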

KRAS-G12V = KRAS-G12V (Homo sapiens, UniProt P01116, G12V); assay: SOS-catalyzed nucleotide exchange assay (Procedure A, TR-FRET), KRAS-G12V; format: biochemical; conditions: nucleotide exchange, read-out: KRAS G12V GNE IC50
Summary of the method: as §4

KRAS-G13D = KRAS-G13D (Homo sapiens, UniProt P01116, G13D); assay: SOS-catalyzed nucleotide exchange assay (Procedure A, TR-FRET), KRAS-G13D; format: biochemical; conditions: nucleotide exchange, Procedure A; read-out: KRAS G13D GNE IC50
MKN-1 cells = assay: Cellular phospho-ERK assay, MKN-1 cells (amplified wild-type KRAS); format: cell-based; conditions: Homo sapiens, amplified wild-type KRAS, 2 hours, read-out: MKN1 pERK IC50
Summary of the method: (§5)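 p-ERK/total ERK ratio, measured by AlphaLISA SureFire Ultra multiplex in lysates, was fitted to a 4-parameter logistic model for IC50. Compound exposure was 2 h at 37° C, 5% CO2, 10-point 1:3 dilutions from 30 μM final, on cells plated the previous night.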

PANC08.13 cells = assay: Cellular phospho-ERK assay, PANC08.13 cells (homozygous KRAS-G12D); format: cell-based; conditions: Homo sapiens, PANC-08-13, KRAS-G12D, 2 hours, read-out: PANC-08.13 pERK IC50
Summary of the method: as §5

AsPC-1 cells = assay: Cellular phospho-ERK assay, AsPC-1 cells (homozygous KRAS-G12D); format: cell-based; conditions: Homo sapiens, ASPC1, 2 h, KRAS-G12D, 2 hours, read-out: AsPC1 pERK IC50
Summary of the method: as §5

SW620 cells = assay: Cellular phospho-ERK assay, SW620 cells (homozygous KRAS-G12V); format: cell-based; conditions: Homo sapiens, SW-620, KRAS-G12V, 2 hours, read-out: SW620 pERK IC50
Summary of the method: as §5

Sequence of KRAS-G12V (P01116 with tags, fused parts or gaps isoform P01116-2 G12V): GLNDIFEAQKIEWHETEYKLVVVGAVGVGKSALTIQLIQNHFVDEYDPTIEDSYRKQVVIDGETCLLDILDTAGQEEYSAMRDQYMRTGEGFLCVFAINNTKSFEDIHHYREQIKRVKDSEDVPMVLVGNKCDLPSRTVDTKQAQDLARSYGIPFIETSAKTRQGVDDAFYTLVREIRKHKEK
Sequence of KRAS-G12D (P01116 with tags, fused parts or gaps isoform P01116-2 G12D): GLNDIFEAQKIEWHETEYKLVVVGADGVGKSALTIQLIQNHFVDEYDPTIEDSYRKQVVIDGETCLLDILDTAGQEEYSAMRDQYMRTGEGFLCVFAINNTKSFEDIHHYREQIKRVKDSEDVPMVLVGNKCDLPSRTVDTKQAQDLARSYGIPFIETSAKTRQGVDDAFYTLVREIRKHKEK
Sequence of KRAS-G13D (P01116 with tags, fused parts or gaps isoform P01116-2 G13D): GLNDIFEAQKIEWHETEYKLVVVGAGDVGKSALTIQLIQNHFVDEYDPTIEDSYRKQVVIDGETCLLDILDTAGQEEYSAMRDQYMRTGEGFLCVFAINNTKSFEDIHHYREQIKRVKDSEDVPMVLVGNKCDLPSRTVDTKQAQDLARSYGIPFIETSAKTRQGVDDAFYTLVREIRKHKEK
Sequence of KRAS-G12C (C51S/C80L/C118S) (P01116 with tags, fused parts or gaps isoform P01116-2 G12C/C51S/C80L/C118S): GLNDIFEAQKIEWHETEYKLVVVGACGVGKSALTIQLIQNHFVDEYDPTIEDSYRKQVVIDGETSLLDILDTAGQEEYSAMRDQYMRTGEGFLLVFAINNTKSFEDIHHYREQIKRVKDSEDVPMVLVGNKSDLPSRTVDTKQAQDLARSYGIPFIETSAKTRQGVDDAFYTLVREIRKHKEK
Sequence of KRAS-WT (P01116 with tags, fused parts or gaps isoform P01116-2): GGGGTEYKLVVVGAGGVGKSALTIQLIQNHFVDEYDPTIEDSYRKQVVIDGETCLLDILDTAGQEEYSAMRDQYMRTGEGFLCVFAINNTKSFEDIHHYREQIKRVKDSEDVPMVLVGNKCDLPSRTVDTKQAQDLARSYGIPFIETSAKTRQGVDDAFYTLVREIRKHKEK
T3 sequence (P01116 with tags, fused parts or gaps isoform P01116-2 G12V): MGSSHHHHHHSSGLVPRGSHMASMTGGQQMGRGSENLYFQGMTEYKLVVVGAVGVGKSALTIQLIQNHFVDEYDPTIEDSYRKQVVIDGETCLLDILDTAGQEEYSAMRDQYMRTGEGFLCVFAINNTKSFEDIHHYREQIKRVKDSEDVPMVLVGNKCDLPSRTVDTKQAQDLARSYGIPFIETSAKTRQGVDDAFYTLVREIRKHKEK
T1 sequence (P01116 with tags, fused parts or gaps isoform P01116-2 G12C): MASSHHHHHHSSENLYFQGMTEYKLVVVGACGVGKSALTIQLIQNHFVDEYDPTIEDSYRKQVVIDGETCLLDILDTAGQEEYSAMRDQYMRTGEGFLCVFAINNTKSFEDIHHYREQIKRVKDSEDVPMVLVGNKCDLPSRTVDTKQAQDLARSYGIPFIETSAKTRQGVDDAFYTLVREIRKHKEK
T2 sequence (P01116 with tags, fused parts or gaps isoform P01116-2 G12D): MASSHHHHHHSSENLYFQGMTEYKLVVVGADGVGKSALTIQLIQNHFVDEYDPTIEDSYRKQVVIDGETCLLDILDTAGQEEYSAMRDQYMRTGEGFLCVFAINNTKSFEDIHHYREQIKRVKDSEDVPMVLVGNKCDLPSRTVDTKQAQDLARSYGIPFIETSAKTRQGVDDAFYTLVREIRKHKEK
T4 sequence (P01116 with tags, fused parts or gaps isoform P01116-2): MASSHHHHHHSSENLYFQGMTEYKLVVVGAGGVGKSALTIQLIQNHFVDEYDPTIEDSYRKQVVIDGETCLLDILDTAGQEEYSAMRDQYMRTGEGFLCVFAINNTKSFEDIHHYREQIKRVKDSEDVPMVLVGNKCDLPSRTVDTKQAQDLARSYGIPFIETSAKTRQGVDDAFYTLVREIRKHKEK

Structure (SMILES)	IC50 [1] [nM]	IC50 [2] [nM]	IC50 [3] [nM]	IC50 [4] [nM]	IC50 (KRAS-WT) [nM]	IC50 [5] [nM]	IC50 (KRAS-G12D) [nM]	IC50 (KRAS-G12V) [nM]	IC50 (KRAS-G13D) [nM]	IC50 (MKN-1 cells) [nM]	IC50 (PANC08.13 cells) [nM]	IC50 (AsPC-1 cells) [nM]	IC50 (SW620 cells) [nM]
C[C@@]1(O)COCCN(c2nc(OC[C@@]34CCCN3C[C@H](F)C4)nc3sc4c(-c5c(-c6ccco6)c(Cl)cc6[nH]ncc56)nncc4c23)C1 [Ex-282]	5.84	4.26	12.5	13.5	–	–	–	–	–	–	–	–	–
C#Cc1n[nH]c2cc(C)c(C(F)(F)F)c(-c3nccc4c3sc3nc(OC[C@@]56CCCN5C[C@H](F)C6)nc(N5CCOC[C@@](C)(O)C5)c34)c12 [Ex-151, (6S)-4-(8-(3-ethynyl-6-methyl-5-(trifluoromethyl)-1H-indazol-4-yl)-2-(((2R,7aS)-2-fluorotetrahydro-1H-pyrrolizin-7a(5H)-yl)methoxy)pyrido[4′,3′:4,5]thieno[2,3-d]pyrimidin-4-yl)-6-methyl-1,4-oxazepan-6-ol]	572	393	1180	690	–	–	–	–	–	–	–	–	–
Cc1cc2[nH]ncc2c(-c2nccc3c4c(N5CCOC[C@@](C)(O)C5)nc(OC[C@@]56CCCN5C[C@H](F)C6)nc4n(C)c23)c1C(F)F (single isomer, unassigned) [Ex-10]	–	–	–	–	97.7	30.1	40.3	54	93.8	200	191	439	337
Cc1cc2[nH]ncc2c(-c2nccc3c4c(N5CCOC[C@@](C)(O)C5)nc(OC[C@]5(CN(C)C)CC5(F)F)nc4n(C)c23)c1C(F)F (single isomer, unassigned) [Ex-19]	–	–	–	–	85.5	37.4	26.5	67.2	68.3	118	68.2	58.5	214
C=Cc1c(C)cc2[nH]ncc2c1-c1nccc2c1sc1nc(OC[C@@]34CCCN3C[C@H](F)C4)nc(N3CCOC[C@@](C)(O)C3)c12 [Ex-35, (6S)-4-(2-(((2R,7aS)-2-fluorotetrahydro-1H-pyrrolizin-7a(5H)-yl)methoxy)-8-(6-methyl-5-vinyl-1H-indazol-4-yl)pyrido[4′,3′:4,5]thieno[2,3-d]pyrimidin-4-yl)-6-methyl-1,4-oxazepan-6-ol]	–	–	–	–	66.7	29.2	31.9	73.7	47.1	121	73.5	264	172
Cc1cc2[nH]ncc2c(-c2nccc3c4c(N5CCOC[C@@](C)(O)C5)nc(OC[C@@]56CCCN5C[C@H](F)C6)nc4n(C)c23)c1C(F)(F)F (single isomer, unassigned) [Ex-1]	–	–	–	–	93.4	19.8	41.5	55.6	77.4	222	237	376	429
Cc1cc2[nH]ncc2c(-c2nccc3c2sc2nc(OC[C@@]45CCCN4C[C@H](F)C5)nc(N4CCOC[C@@](C)(O)C4)c23)c1C(F)F [Ex-129, (6S)-4-(8-(5-(di-fluoromethyl)-6-methyl-1H-indazol-4-yl)-2-(((2R,7aS)-2-fluorotetrahydro-1H-pyrrolizin-7a(5H)-yl)methoxy)-pyrido[4′,3′:4,5]thieno[2,3-d]pyr-imidin-4-yl)-6-meth-yl-1,4-oxazepan-6-ol]	–	–	–	–	165	50	56.2	85	79	241	144	469	211
Cc1cc2[nH]ncc2c(-c2nccc3c2sc2nc(OC[C@@]45CCCN4C[C@H](F)C5)nc(N4CCOC[C@@](C)(O)C4)c23)c1C(F)(F)F [Ex-126, (6S)-4-(2-(((2R,7aS)-2-fluorotetrahydro-1H-pyrrolizin-7a(5H)-yl)methoxy)-8-(6-methyl-5-(trifluoromethyl)-1H-indazol-4-yl)pyrido[4′,3′:4,5]thieno[2,3-d]pyrimidin-4-yl)-6-methyl-1,4-oxazepan-6-ol]	–	–	–	–	88.3	30.7	34.9	52.8	58.6	169	85.4	271	320
Cc1cc2[nH]ncc2c(-c2nccc3c2sc2nc(OC[C@@]45CCCN4C[C@H](F)C5)nc(N4CCOC[C@@](C)(O)C4)c23)c1OC(F)(F)Cl [Ex-39, (6S)-4-(8-(5-(chlorodifluoromethoxy)-6-methy1-1H-indazol-4-yl)-2-(((2R,7aS)-2-fluorotetrahydro-1H-pyrrolizin-7a(5H)-yl)methoxy)pyri-do[4′,3′:4,5]thi-eno[2,3-d]pyrimidin-4-yl)-6-methyl-1,4-oxazepan-6-ol]	–	–	–	–	30	9.42	9.23	30.9	20.4	44.2	35.7	118	74.3
